For one data set, the target named is T1, adenosine A1 receptor (Rattus norvegicus, UniProt P25099).
T1 construct: Whole brain minus cerebellum and brainstem from male Long Evans rats; from tissue; host or cells: rat whole brain minus cerebellum and brainstem, membranes
T1 sequence (P25099 1-326): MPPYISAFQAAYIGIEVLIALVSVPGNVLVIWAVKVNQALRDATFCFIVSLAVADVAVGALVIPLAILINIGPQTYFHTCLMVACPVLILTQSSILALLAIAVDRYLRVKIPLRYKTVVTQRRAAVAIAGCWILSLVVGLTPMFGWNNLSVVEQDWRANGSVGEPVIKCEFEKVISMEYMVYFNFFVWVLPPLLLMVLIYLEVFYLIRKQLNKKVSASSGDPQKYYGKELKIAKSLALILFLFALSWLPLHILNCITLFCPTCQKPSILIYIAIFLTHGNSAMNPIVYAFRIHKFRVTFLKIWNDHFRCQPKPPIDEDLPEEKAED
Nature of the data set: Adenosine Receptor Binding--A1 Receptor Affinity (RBA1), [3H]-CHA displacement. The settings on record: 1.0 nM [3H]-CHA, rat brain, 25° C, 1 h; read-out: RBA-1 (IC50, A1 receptor affinity). The procedure:
Adenosine Receptor Binding--A1 Receptor Affinity (RBA1)
Whole brain minus cerebellum and brainstem from male Long Evans rats (105-200 g) was homogenized in 30 volumes of ice-cold 0.05M Tris-HCl buffer pH 7.7 using a Brinkman Polytron PT-10, (setting number 6 for 20 seconds) and centrifuged for ten minutes at 20,000×g (Sorvall RC-2), 4° C. The supernatant was discarded, and the pellet was resuspended and centrifuged as before. The pellet was resuspended in 20 ml Tris-HCl buffer containing two International Units/ml of adenosine deaminase (Sigma type III from calf intestinal mucosa), incubated at 37° C. for 30 minutes, then subsequently at 0° C. for ten minutes. The homogenate was again centrifuged, and the final pellet was resuspended in ice-cold 0.05M Tris-HCl buffer pH 7.7 to a concentration of 20 mg/ml original wet tissue weight and used immediately.
Tissue homogenate (10 mg/ml) was incubated in 0.05M Tris-HCl buffer pH 7.7 containing 1.0 nM ((^3 H))-N^6 -cyclohexyladenosine ([^3 H]-CHA) with or without test agents in triplicate for one hour at 25° C. Incubation volume was 2 ml. Unbound [^3 H]-CHA was separated by rapid filtration under reduced pressure through Whatman glass fiber (GF/B) filters. The filters were rinsed three times with 5 ml of ice cold 0.05M Tris-HCl buffer pH 7.7. The radio-labeled ligand retained on the filter was measured by liquid scintillation spectrophotometry after shaking the filters for one hour or longer on a mechanical shaker in 10 ml of Beckman Ready-Solv HP scintillation cocktail.
Nonspecific binding was defined as the binding which occured in the presence of 1 mM theophylline. The concentration of test agent which inhibited 50% of the specific binding (IC50) was determined by nonlinear computer curve fit. The Scatchard plot was calculated by linear regression of the line obtained by plotting the amount of radioligand bound (pmoles/gram of tissue) versus [formula] Since the amount of radioligand bound was a small fraction of the total amount added, free radioligand was defined as the concentration of (nM) of radioligand added to the incubation mixture. The Hill coefficient was calculated by linear regression of the line obtained by plotting the log of the bound radioligand vs the log of the [formula] The maximal number of binding sites (Bmax) was calculated from the Scatchard plot.

A further data set has as its target T2, adenosine A2 receptor (Rattus norvegicus, UniProt P30543).
T2 construct: Brains were thawed and then kept on ice while the striata were dissected out; tissue Pel-Freez (Rogers, Arkansas) (rat brains); host or cells: rat striatum, membranes
Nature of the data set: Adenosine Receptor Binding--A2 Receptor Affinity (RBA2), [3H]NECA displacement. The data set is classed as rat (Sprague-Dawley striatal membranes). The settings on record: 4 nM [3H]NECA + 50 nM N6-cyclopentyladenosine, rat striatum, 25° C, 60 min; read-out: RBA-2 (IC50, A2 receptor affinity). The method, then: Adenosine Receptor Binding--A2 Receptor Affinity (RBA2)
Brains from 200-500 g mixed sex Sprague-Dawley rats were purchased from Pel-Freez (Rogers, Arkansas). Fresh brains from male Long-Evans hooded rats (Blue Spruce Farms, Altamont, NY) gave essentially identical results. Brains were thawed and then kept on ice while the striata were dissected out. Striata were disrupted in 10 vol of ice-cold 50 mM Tris.HCl (pH 7.7 at 25° C., pH 8.26 at 5° C.) (Tris) for 30 seconds in a Polytron PT-10 (Brinkmann) at setting 5. The suspension was centrifuged at 50,000×g for ten minutes, the supernatant discarded, the pellet resuspended in 10 vol ice-cold Tris as above, recentrifuged, resuspended at 1 g/5 ml, and stored in plastic vials at -70° C. (stable for at least six months). When needed, tissue was thawed at room temperature, disrupted in a Polytron, and kept on ice until used.
All incubations were for 60 minutes at 25° C. in 12×75 mm glass tubes containing 1 ml Tris with 5 mg original tissue weight of rat weight of rat striatal membranes, 4 nM [^3 H]-N-ethyl adenosine-5'-carboxamide ([^3 H]NECA), 50 nM N^6 -cyclopentyladenosine (to eliminate A1 receptor binding), 10 mM MgCl2, 0.1 units/ml of adenosine deaminase and 1% dimethylsulfoxide. N^6 -Cyclopentyladenosine was dissolved at 10 mM in 0.02N HCl and diluted in Tris. Stock solutions and dilutions of N^6 -cyclopentyladenosine could be stored at -20° C. for several months. Test compounds were dissolved at 10 mM in dimethylsulfoxide on the same day as the experiment, and diluted in dimethylsulfoxide to 100× the final incubation concentration. Control incubations received an equal volume (10 μl) of dimethylsulfoxide; the resulting concentration of dimethylsulfoxide had no effect on binding. [^3 H]NECA was diluted to 40 nM in Tris. The membrane suspension (5 mg/0.79 ml) contained sufficient MgCl2 and adenosine deaminase to give 10 mM and 0.1 units/ml, respectively, final concentration in the incubation. […] After all additions, the rack of tubes was vortexed, and the tubes were then incubated for 60 min at 25° C. in a shaking water bath. The rack of tubes was vortexed an additional time halfway through the incubation.
Incubations were terminated by filtration through 2.4 cm GF/B filters under reduced pressure. Each tube was filtered as follows: the contents of the tube were poured on the filter, 4 ml of ice-cold Tris were added to the tube and the contents poured onto the filter, and the filter was washed twice with 4 ml of ice-cold Tris. The filtration was complete in about twelve seconds. Filters were put in scintillation vials, 8 ml of Formula 947 scintillation fluid added, and the vials left overnight, shaken, and counted in a liquid scintillation counter at 40% efficiency.
Nonspecific binding was defined as binding in the presence of 100 μM N^6 -cyclopentyladenosine, and specific binding was defined as total binding minus nonspecific binding. The IC50 was calculated by weighted nonlinear least squares curve-fitting to the mass-action equation. [formula] where Y is cpm bound
T is cpm total binding without drug
S is cpm specific binding without drug
D is the concentration of drug and
K is the IC50 of the drug
Weighting factors were calculated under the assumption that the standard deviation was proportional to the predicted value of Y. Nonspecific binding was treated as a very large (infinite) concentration of drug in the computer analysis.

In a further data set the test system is locomotor activity. Nature of the data set: Activity and Screen Test done orally in rats: locomotor activity. The data set is classed as in vivo. The method, then: Immediately following the screen test, the final phase of testing is initiated by placing each group of three mice in one actophotometer (Life Sciences, 22, 1067-1076, 1978). The actophotometer consists of a cylindrical chamber whose center is occupied by another cylinder which contains the illumination for six photocells located on the perimeter of the chamber. Six light-beam interruptions equal one count. Locomotor activity is recorded by computer at ten minute intervals for 60 minutes.
(§1) The data obtained from the screen test are expressed as percent of mice falling off the screen. Data derived from locomotor activity of drug treated mice are compared to the activity of vehicle treated animals and are expressed as percent inhibition of spontaneous locomotion. All percentages reported for inhibition of locomotion (LI) are based upon data accumulated for one hour. Both phases of testing are graded: A=60-100%; C=31-59%; and N=0-30%. An overall dose rating is obtained by the following criteria:
(§2) *This was done orally in rats, rather than IP in mice.

The test system of data set [1] is animals falling off the inverted screen. The data set is described as follows: Activity and Screen Test done orally in rats: screen test. Type of data set: in vivo. The procedure:
A two part testing procedure is started one hour postinjection. First, the screen test (ST) is performed (see Pharmac. Biochem. Behav. 6, 351-353, 1977). Briefly this test consists of placing mice on individual wire screens which are then rotated 180 degrees at the start of a 60 second observation period. The number of mice falling off the inverted screen is recorded.
as §1, §2

As usually defined, the IC50 is the concentration needed to halve the response being measured.

T2 sequence (P30543 whole entry): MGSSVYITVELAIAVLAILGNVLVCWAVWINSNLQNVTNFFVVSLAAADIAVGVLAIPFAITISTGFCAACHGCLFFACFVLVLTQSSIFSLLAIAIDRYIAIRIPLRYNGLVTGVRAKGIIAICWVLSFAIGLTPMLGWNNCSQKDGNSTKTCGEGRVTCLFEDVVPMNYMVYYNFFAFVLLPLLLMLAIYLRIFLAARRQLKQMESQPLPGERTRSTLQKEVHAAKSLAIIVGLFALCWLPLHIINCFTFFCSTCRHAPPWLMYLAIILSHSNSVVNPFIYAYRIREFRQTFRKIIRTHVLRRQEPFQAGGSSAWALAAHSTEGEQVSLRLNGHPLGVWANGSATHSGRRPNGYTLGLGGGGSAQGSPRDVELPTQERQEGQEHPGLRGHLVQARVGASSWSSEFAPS

In the case of `CCNC(=O)[C@H]1O[C@@H](n2cnc3c(N[C@@H]4CCc5ccccc54)ncnc32)[C@H](O)[C@@H]1O` [Example 2, (R)-N-6-(1-indanyl) adenosine-5'-ethylcarboxamide], the 50% inhibitory concentration (IC50) was determined as 29 nM at adenosine A1 receptor and 161 nM at adenosine A2 receptor.

For `CCNC(=O)[C@H]1O[C@@H](n2cnc3c(NC4CCCC4)ncnc32)[C@H](O)[C@@H]1O` [Example 4, N6-cyclopentyladenosine-5'-ethylcarboxamide], the IC50 at adenosine A1 receptor worked out at 0.9 nM; on adenosine A2 receptor, 198 nM. In addition, the “Inhibition of locomotor activity” value in the data set with locomotor activity (0.1 mg/kg orally) is on record as 33%; in the data set with locomotor activity (0.3 mg/kg orally), 36%; in the data set with locomotor activity (1 mg/kg orally), 81%; with locomotor activity (3 mg/kg orally), 84%; in the data set on locomotor activity (10 mg/kg orally), 84%. Moreover, the Screen test failure in data set [1] (0.1 mg/kg orally) is reported as 22%; in data set [1] (0.3 mg/kg orally), 6%; in data set [1] (1 mg/kg orally), 17%; in data set [1] (3 mg/kg orally), 22%; in data set [1] (10 mg/kg orally), 72%.

As to `CCNC(=O)[C@H]1O[C@@H](n2cnc3c(NC4CC5CCC4C5)ncnc32)[C@H](O)[C@@H]1O` (relative stereo) [Example 9, N-6-Norbornyladenosine-5'ethylcarboxamide], the “Inhibition of locomotor activity” value is reported as 37% with locomotor activity (0.1 mg/kg orally), 69% with locomotor activity (0.3 mg/kg orally) and 89% in the data set on locomotor activity (1 mg/kg orally). In addition, the Screen test failure was 33% in data set [1] (0.1 mg/kg orally), 11% in data set [1] (0.3 mg/kg orally) and 44% in data set [1] (1 mg/kg orally).

Take `CCOC(=O)[C@H]1O[C@@H](n2cnc3c(N[C@H](C)Cc4ccccc4)ncnc32)[C@H](O)[C@@H]1O` [Example 7, (R)-N-6-[(2-Phenyl-1-methyl)ethyl]-adenosine-5'-ethylcarboxylate]: the IC50 on adenosine A1 receptor worked out at 16 nM; on adenosine A2 receptor, 2680 nM.

Source of the values: patent US4738954A, “Novel N^6 -substituted-5'-oxidized adenosine analogs” (Warner-Lambert Company, priority 1985, dated 1988).
